Molecular target: CDK4 (Homo sapiens, UniProt P11802+Q16531)
Assay: CDK4 percentage degradation in Calu-1 cells (Table 6)
Type: cell-based
Design: Cells that express cyclin D1-3 and CDK4/6 proteins were treated with heterobifunctional compounds; endogenous in cells; host or cells: Calu-1
Settings: 16 hours; for inhibition at 0.04 µM: 40 nM; for inhibition at 0.2 µM: 200 nM
Protocol: Calu-(cells were treated with heterobifunctional compounds at 40 nM or 200 nM for 16 hours A: protein percentage degradation […]; B: protein percentage degradation <80%, and ≥50%; C: protein percentage degradation <50%, and ≥30%; D; protein percentage degradation […]; -, data not available.
Calu-1, T47D, MCF7, HCC1428 and other cells were cultured at 37° C. with 5% CO2 in RPMI 1640 or DMEM medium supplemented with 10% fetal bovine serum. Cells were authenticated using the short tandem repeat (STR) assays. Mycoplasma test results were negative. For palbo-resistant cell model, T47D cells were cultured long-term to resistance in the presence of 1 μM Palbociclib. Cells were deemed resistant when growing in the presence of Palbo at the same rate as parental cells.
Cultured cells were washed with cold PBS once and lysed in cold RIPA buffer supplemented with protease inhibitors and phosphatase inhibitors (Beyotime Biotechnology). The solutions were then incubated at 4 ? for 30 min with gentle agitation to fully lysed cells. Cell lysates were centrifuged at 13,000 rpm for 10 min at 4 ? and pellets were discarded. Total protein concentrations in the lysates were determined following BCA assays (Beyotime Biotechnology). Cell lysates were mixed with Laemmli loading buffer and heated at 99° C. for 5 min. Proteins were resolved on SDS-PAGE and visualized using Western ECL Substrate kits on a ChemiDoc MP Imaging system (Bio-Rad). Protein bands were quantitated using the Image Lab software provided by Bio-Rad.

Sequence of CDK4 (P11802 2-303 limits assumed): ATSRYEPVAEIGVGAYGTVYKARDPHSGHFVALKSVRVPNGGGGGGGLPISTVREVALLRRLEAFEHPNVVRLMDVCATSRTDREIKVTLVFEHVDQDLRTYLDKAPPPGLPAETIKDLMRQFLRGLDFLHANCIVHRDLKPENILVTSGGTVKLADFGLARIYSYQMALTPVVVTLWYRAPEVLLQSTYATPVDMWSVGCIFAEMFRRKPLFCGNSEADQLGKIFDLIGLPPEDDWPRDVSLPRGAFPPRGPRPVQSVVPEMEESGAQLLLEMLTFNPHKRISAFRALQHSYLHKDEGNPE
Sequence of CDK4 (P24385 whole entry partner): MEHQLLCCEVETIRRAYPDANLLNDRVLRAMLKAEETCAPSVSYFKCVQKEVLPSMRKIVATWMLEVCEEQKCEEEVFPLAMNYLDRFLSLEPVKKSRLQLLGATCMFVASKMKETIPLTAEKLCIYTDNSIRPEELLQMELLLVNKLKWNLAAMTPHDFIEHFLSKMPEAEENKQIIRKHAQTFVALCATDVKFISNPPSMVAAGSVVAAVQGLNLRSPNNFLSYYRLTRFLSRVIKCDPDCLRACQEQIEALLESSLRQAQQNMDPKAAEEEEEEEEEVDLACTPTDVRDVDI
Sequence of CDK4 (Q16531 2-1140 limits assumed): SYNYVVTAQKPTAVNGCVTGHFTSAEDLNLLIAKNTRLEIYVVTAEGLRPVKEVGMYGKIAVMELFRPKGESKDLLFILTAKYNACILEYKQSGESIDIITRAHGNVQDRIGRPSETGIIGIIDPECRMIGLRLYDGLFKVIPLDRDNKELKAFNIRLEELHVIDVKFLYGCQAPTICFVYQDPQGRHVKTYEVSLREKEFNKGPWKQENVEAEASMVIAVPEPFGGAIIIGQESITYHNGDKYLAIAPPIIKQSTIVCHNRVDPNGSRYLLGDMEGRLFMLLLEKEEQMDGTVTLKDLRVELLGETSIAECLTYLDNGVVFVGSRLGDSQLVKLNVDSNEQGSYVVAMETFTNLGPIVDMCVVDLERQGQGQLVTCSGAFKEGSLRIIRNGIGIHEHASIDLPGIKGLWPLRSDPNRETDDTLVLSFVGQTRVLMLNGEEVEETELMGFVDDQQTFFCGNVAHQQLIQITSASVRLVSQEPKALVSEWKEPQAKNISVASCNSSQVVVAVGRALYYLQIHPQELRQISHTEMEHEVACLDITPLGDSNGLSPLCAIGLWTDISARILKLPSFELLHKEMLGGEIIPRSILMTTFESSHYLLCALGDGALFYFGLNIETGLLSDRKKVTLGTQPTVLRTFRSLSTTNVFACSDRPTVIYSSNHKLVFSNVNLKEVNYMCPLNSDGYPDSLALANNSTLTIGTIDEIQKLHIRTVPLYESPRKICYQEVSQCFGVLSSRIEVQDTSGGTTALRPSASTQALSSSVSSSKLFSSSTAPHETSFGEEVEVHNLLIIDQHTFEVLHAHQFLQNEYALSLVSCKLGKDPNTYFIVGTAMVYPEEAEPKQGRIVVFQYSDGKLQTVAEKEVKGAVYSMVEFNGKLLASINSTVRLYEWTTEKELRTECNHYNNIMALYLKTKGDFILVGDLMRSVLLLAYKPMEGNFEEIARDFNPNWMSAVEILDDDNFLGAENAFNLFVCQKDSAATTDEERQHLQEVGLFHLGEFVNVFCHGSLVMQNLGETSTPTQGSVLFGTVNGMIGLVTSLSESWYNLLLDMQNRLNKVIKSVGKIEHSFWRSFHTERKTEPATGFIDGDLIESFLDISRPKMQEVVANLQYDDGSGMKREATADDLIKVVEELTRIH

| Structure (SMILES) | inhibition at 0.04 µM [%] | inhibition at 0.2 µM [%] |
| --- | --- | --- |
| CNc1ccc(C(=O)Nc2ccc(C)c(C3CC3)n2)c(NCCCCCNC(=O)CN2CCN(c3ccc(Nc4ncc5c(C)c(C(C)=O)c(=O)n(C6CCCC6)c5n4)nc3)CC2)n1 [CPD-7, 2-((5-(2-(4-(6-((6-acetyl-8-cyclopentyl-5-methyl-7-oxo-7,8-dihydropyrido[2,3-d]pyrimidin-2-yl)amino)pyridin-3-yl)piperazin-1-yl)acetamido)pentyl)amino)-N-(6-cyclopropyl-5-methylpyridin-2-yl)-6-(methylamino)nicotinamide] | 50 to 80 |  |
| CNc1ccc(C(=O)Nc2ccc(N(C)C)cn2)c(NCCCCCNC(=O)CN2CCN(c3ccc(Nc4ncc5c(C)c(C(C)=O)c(=O)n(C6CCCC6)c5n4)nc3)CC2)n1 [CPD-47, 2-((5-(2-(4-(6-((6-Acetyl-8-cyclopentyl-5-methyl-7-oxo-7,8-dihydropyrido[2,3-d]pyrimidin-2-yl)amino)pyridin-3-yl)piperazin-1-yl)acetamido)pentyl)amino)-N-(5-(dimethylamino)pyridin-2-yl)-6-(methylamino)nicotinamide] | < 30 | 50 to 80 |
| CNc1ccc(C(=O)Nc2ccc(N(C)C)nn2)c(NC2CC(OCC(=O)N3CCN(c4ccc(Nc5ncc6c(C)c(C(C)=O)c(=O)n(C7CCCC7)c6n5)nc4)CC3)C2)n1 (stereo not shown) [CPD-168, 2-((3-(2-(4-(6-((6-acetyl-8-cyclopentyl-5-methyl-7-oxo-7,8-dihydropyrido[2,3-d]pyrimidin-2-yl)amino)pyridin-3-yl)piperazin-1-yl)-2-oxoethoxy)cyclobutyl)amino)-N-(6-(dimethylamino)pyridazin-3-yl)-6-(methylamino)nicotinamide] | 50 to 80 | > 80 |
| CNc1ccc(C(=O)Nc2ccc(N(C)C)nn2)c(NCCCC2CN(C(=O)CN3CCN(c4ccc(Nc5ncc6c(C)c(C(C)=O)c(=O)n(C7CCCC7)c6n5)nc4)CC3)C2)n1 [CPD-102, 2-((3-(1-(2-(4-(6-((6-Acetyl-8-cyclopentyl-5-methyl-7-oxo-7,8-dihydropyrido[2,3-d]pyrimidin-2-yl)amino)pyridin-3-yl)piperazin-1-yl)acetyl)azetidin-3-yl)propyl)amino)-N-(6-(dimethylamino)pyridazin-3-yl)-6-(methylamino)nicotinamide] | 50 to 80 | 50 to 80 |
| CNc1ccc(C(=O)Nc2nc(C3CC3)ccc2F)c(NC2CC3(CC(NC(=O)CN4CCN(c5ccc(Nc6ncc7c(C)c(C(C)=O)c(=O)n(C8CCCC8)c7n6)nc5)CC4)C3)C2)n1 (stereo not shown) [CPD-114, 2-((6-(2-(4-(6-((6-Acetyl-8-cyclopentyl-5-methyl-7-oxo-7,8-dihydropyrido[2,3-d]pyrimidin-2-yl)amino)pyridin-3-yl)piperazin-1-yl)acetamido)spiro[3.3]heptan-2-yl)amino)-N-(6-cyclopropyl-3-fluoropyridin-2-yl)-6-(methylamino)nicotinamide] | < 30 | < 30 |
| CNc1ccc(C(=O)Nc2ccc(C)nn2)c(NCCCCCNC(=O)CN2CCN(c3ccc(Nc4ncc5c(C)c(C(C)=O)c(=O)n(C6CCCC6)c5n4)nc3)CC2)n1 [CPD-105, 2-((5-(2-(4-(6-((6-Acetyl-8-cyclopentyl-5-methyl-7-oxo-7,8-dihydropyrido[2,3-d]pyrimidin-2-yl)amino)pyridin-3-yl)piperazin-1-yl)acetamido)pentyl)amino)-6-(methylamino)-N-(6-methylpyridazin-3-yl)nicotinamide] | < 30 | 50 to 80 |
| CNc1ccc(C(=O)Nc2ccc(F)c(C3CC3)n2)c(NCCCCCNC(=O)CN2CCN(c3ccc(Nc4ncc5c(C)c(C(C)=O)c(=O)n(C6CCCC6)c5n4)nc3)CC2)n1 [CPD-113, 2-((5-(2-(4-(6-((6-Acetyl-8-cyclopentyl-5-methyl-7-oxo-7,8-dihydropyrido[2,3-d]pyrimidin-2-yl)amino)pyridin-3-yl)piperazin-1-yl)acetamido)pentyl)amino)-N-(6-cyclopropyl-5-fluoropyridin-2-yl)-6-(methylamino)nicotinamide] | 30 to 50 | 50 to 80 |
| CC(=O)c1c(C)c2cnc(Nc3ccc(N4CCN(CC(=O)NC(C)CCCCNc5nc(C6CC6)ccc5C(=O)Nc5ccc(C)c(C6CC6)n5)CC4)cn3)nc2n(C2CCCC2)c1=O (stereo not shown) [CPD-60, 2-((5-(2-(4-(6-((6-Acetyl-8-cyclopentyl-5-methyl-7-oxo-7,8-dihydropyrido[2,3-d]pyrimidin-2-yl)amino)pyridin-3-yl)piperazin-1-yl)acetamido)hexyl)amino)-6-cyclopropyl-N-(6-cyclopropyl-5-methylpyridin-2-yl)nicotinamide] | 50 to 80 | 50 to 80 |
| CNc1ccc(C(=O)Nc2ccc(C)c(OC)n2)c(NCCCCCNC(=O)CN2CCN(c3ccc(Nc4ncc5c(C)c(C(C)=O)c(=O)n(C6CCCC6)c5n4)nc3)CC2)n1 [CPD-116, 2-((5-(2-(4-(6-((6-Acetyl-8-cyclopentyl-5-methyl-7-oxo-7,8-dihydropyrido[2,3-d]pyrimidin-2-yl)amino)pyridin-3-yl)piperazin-1-yl)acetamido)pentyl)amino)-N-(6-methoxy-5-methylpyridin-2-yl)-6-(methylamino)nicotinamide] | 30 to 50 | 30 to 50 |
| CNc1ccc(C(=O)Nc2ccc(N(C)C)nn2)c(NC2CC(CC(=O)N3CCN(c4ccc(Nc5ncc6c(C)c(C(C)=O)c(=O)n(C7CCCC7)c6n5)nc4)CC3)C2)n1 (stereo not shown) [CPD-148, 2-((3-(2-(4-(6-((6-acetyl-8-cyclopentyl-5-methyl-7-oxo-7,8-dihydropyrido[2,3-d]pyrimidin-2-yl)amino)pyridin-3-yl)piperazin-1-yl)-2-oxoethyl)cyclobutyl)amino)-N-(6-(dimethylamino)pyridazin-3-yl)-6-(methylamino)nicotinamide] | 50 to 80 | > 80 |
| CNc1ccc(C(=O)Nc2ccc3c(cnn3C)n2)c(NCCCCCNC(=O)CN2CCN(c3ccc(Nc4ncc5c(C)c(C(C)=O)c(=O)n(C6CCCC6)c5n4)nc3)CC2)n1 [CPD-32] | < 30 | < 30 |
| CNc1ccc(C(=O)Nc2cnn(C)c2)c(NC2CC3(CC(NC(=O)CN4CCN(c5ccc(Nc6ncc7c(C)c(C(C)=O)c(=O)n(C8CCCC8)c7n6)nc5)CC4)C3)C2)n1 (stereo not shown) [CPD-94, 2-((6-(2-(4-(6-((6-Acetyl-8-cyclopentyl-5-methyl-7-oxo-7,8-dihydropyrido[2,3-d]pyrimidin-2-yl)amino)pyridin-3-yl)piperazin-1-yl)acetamido)spiro[3.3]heptan-2-yl)amino)-N-(1-methyl-1H-pyrazol-4-yl)-6-(methylamino)nicotinamide] | < 30 | 30 to 50 |
| CNc1ccc(C(=O)Nc2ccc(C)c(C(C)C)n2)c(NCCCCCNC(=O)CN2CCN(c3ccc(Nc4ncc5c(C)c(C(C)=O)c(=O)n(C6CCCC6)c5n4)nc3)CC2)n1 [CPD-111, 2-((5-(2-(4-(6-((6-Acetyl-8-cyclopentyl-5-methyl-7-oxo-7,8-dihydropyrido[2,3-d]pyrimidin-2-yl)amino)pyridin-3-yl)piperazin-1-yl)acetamido)pentyl)amino)-N-(6-isopropyl-5-methylpyridin-2-yl)-6-(methylamino)nicotinamide] | < 30 | 50 to 80 |
| CNc1ccc(C(=O)Nc2ccc(C(C)C)nn2)c(NCCCCCNC(=O)CN2CCN(c3ccc(Nc4ncc5c(C)c(C(C)=O)c(=O)n(C6CCCC6)c5n4)nc3)CC2)n1 [CPD-15, 2-((5-(2-(4-(6-((6-Acetyl-8-cyclopentyl-5-methyl-7-oxo-7,8-dihydropyrido[2,3-d]pyrimidin-2-yl)amino)pyridin-3-yl)piperazin-1-yl)acetamido)pentyl)amino)-N-(6-isopropylpyridazin-3-yl)-6-(methylamino)nicotinamide] | < 30 | < 30 |
| CNc1ccc(C(=O)Nc2cc(C(C)C)on2)c(NC2CC3(CC(NC(=O)CN4CCN(c5ccc(Nc6ncc7c(C)c(C(C)=O)c(=O)n(C8CCCC8)c7n6)nc5)CC4)C3)C2)n1 (stereo not shown) [CPD-227, 2-((6-(2-(4-(6-((6-acetyl-8-cyclopentyl-5-methyl-7-oxo-7,8-dihydropyrido[2,3-d]pyrimidin-2-yl)amino)pyridin-3-yl)piperazin-1-yl)acetamido)spiro[3.3]heptan-2-yl)amino)-N-(5-isopropylisoxazol-3-yl)-6-(methylamino)nicotinamide] | < 30 | < 30 |
| CNc1ccc(C(=O)Nc2cc(C)n(C)n2)c(NC2CCN(C(=O)CN3CCN(c4ccc(Nc5ncc6c(C)c(C(C)=O)c(=O)n(C7CCCC7)c6n5)nc4)CC3)CC2)n1 [CPD-228, 2-((1-(2-(4-(6-((6-acetyl-8-cyclopentyl-5-methyl-7-oxo-7,8-dihydropyrido[2,3-d]pyrimidin-2-yl)amino)pyridin-3-yl)piperazin-1-yl)acetyl)piperidin-4-yl)amino)-N-(1,5-dimethyl-1H-pyrazol-3-yl)-6-(methylamino)nicotinamide] | < 30 | 30 to 50 |

— patent US20260297081A1, “COMPOUNDS AND METHODS OF TREATING CANCERS” (Cullgen Inc., priority 2023, published 2026)
